The source of these data is article PMC3328449, “Inhibition of Diacylglycerol–Sensitive TRPC Channels by Synthetic and Natural Steroids” (PLoS ONE, 2012).

What is called IC50 is the midpoint of a concentration-inhibition curve.

“And” between values parts separate entries of the source, which are not always exact repeats. Equal values may be shown once.

This experiment deals with T1, hTRPC3 (Homo sapiens, UniProt Q13507).
T1 construct: expressed in transfected cells
T1 sequence (Q13507 1-848 isoform Q13507-3): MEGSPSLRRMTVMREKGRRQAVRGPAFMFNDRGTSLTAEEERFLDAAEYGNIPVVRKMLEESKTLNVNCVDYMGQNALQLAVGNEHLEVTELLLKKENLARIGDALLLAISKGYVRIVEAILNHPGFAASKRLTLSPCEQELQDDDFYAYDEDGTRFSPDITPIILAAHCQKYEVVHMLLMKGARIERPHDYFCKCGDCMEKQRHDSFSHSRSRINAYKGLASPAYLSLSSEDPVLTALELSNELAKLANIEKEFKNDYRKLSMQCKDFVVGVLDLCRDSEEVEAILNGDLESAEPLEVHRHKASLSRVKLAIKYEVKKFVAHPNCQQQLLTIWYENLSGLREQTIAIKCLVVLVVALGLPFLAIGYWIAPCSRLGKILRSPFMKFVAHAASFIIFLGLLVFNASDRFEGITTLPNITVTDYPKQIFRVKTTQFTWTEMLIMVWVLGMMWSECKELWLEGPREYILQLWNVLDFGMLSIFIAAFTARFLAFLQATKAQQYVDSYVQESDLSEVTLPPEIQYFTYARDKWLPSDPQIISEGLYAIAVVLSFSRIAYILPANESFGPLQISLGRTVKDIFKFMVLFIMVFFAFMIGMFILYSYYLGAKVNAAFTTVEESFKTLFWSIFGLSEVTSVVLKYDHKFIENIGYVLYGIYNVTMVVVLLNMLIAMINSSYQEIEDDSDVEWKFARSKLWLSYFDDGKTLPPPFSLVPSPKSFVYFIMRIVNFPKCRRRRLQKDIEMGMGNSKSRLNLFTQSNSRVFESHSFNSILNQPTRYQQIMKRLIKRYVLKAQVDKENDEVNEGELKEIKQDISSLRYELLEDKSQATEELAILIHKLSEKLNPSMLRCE
Nature of the experiment: OAG-induced Ca2+ entry, fluo-4 fluorometric imaging plate reader, TRPC3 CHO cells. It counts as cell-based. As to conditions: for IC50: TRPC3 CHO cells, fluo-4, area under the curve, 10 min pre-incubation, read-out: IC50, inhibition of OAG-induced Ca2+ entry via TRPC3; for Hill slope n, inhibition of TRPC3-mediated Ca2+ entry: fit to Hill model. As to the method: hTRPC3 (GenBank accession number NM_003305) was stably expressed in chinese hamster ovary (CHO) cells using a proprietary high expression vector (Steinbeis -Transferzentrum für Angewandte Biologische Chemie, Mannheim, Germany). Cells grown to an almost confluent monolayer on black poly-D-lysine coated 96-well plates (Greiner, Frickenhausen, Germany) were washed with standard extracellular solution (140 mM NaCl, 1 mM MgCl2, 5.4 mM KCl, 2 mM CaCl2, 10 mM HEPES, 10 mM glucose, pH 7.35) and stained (30 min, room temperature) with dye solution (2 μM fluo-4 AM, 0.02% pluronic F127, 0.1% bovine serum albumin in standard extracellular solution). Cells were washed and either incubated with standard extracellular solution only or with different concentrations of test compounds for 10 min. Fluo-4 fluorescence was excited at 488 nm with an argon laser and measured using a fluorometric imaging plate reader (Molecular Devices, Sunnyvale, USA). All fluorometric measurements were performed at room temperature. […] Baseline fluorescence in non-OAG-stimulated cells and OAG-stimulated Ca^2+ influx into control cells not treated with inhibitors were defined as 0% and 100% influx, respectively. For statistical analysis, analysis of variance was performed with Origin 6.0 software (Microcal Software Inc., Northampton, USA). […] Averaged data is expressed as means ± SEM.

In the case of `C#C[C@]1(OC(C)=O)CC[C@H]2[C@@H]3CCC4=CC(=NO)CC[C@@H]4[C@H]3CC[C@@]21CC` (mixture of isomers) [norgestimate], the 50% inhibitory concentration (IC50) was 3 to 5 µM and 3 µM; the “Hill slope n, inhibition of TRPC3-mediated Ca2+ entry” value was 1.67. Also, under “30 µM pre-incubation, OAG-induced”, the “Effect on TRPC3-mediated Ca2+ entry” value was “significantly reduced”.
With `CC(=O)[C@H]1CC[C@H]2[C@@H]3CCC4=CC(=O)CC[C@]4(C)[C@H]3CC[C@]12C` [progesterone], the IC50 is 12.4 µM and the “Hill slope n, inhibition of TRPC3-mediated Ca2+ entry” value was found to be 3.6.
